Counter-ions that a name gives are not always drawn. Like-named read-outs stand apart in the source and are kept apart here.
Columns and labels:
[1] = target: T1, noradrenaline (NA) reuptake in synaptosomes (Rattus norvegicus, UniProt Q63380); assay: Inhibition of NA reuptake in synaptosomes; type: biochemical
T1 construct: in synaptosomes as described in WO 97/16451; from tissue
Protocol: (§1) Compounds were tested for their ability to inhibit the reuptake of the monoamine neurotransmitters dopamine (DA) noradrenaline (NA) and serotonine (5-HT) in synaptosomes as described in WO 97/16451 (NeuroSearch NS).
(§2) The test values are given as IC50 (the concentration (μM) of the test substance which inhibits the specific binding of ^3H-DA, ^3H-NA, or ^3H-5-HT by 50%).

[2] = target: T2, dopamine (DA) reuptake in synaptosomes (Rattus norvegicus, UniProt P23977); assay: Inhibition of DA reuptake in synaptosomes; type: biochemical
T2 construct: in synaptosomes as described in WO 97/16451; from tissue
T2 sequence (P23977 whole entry): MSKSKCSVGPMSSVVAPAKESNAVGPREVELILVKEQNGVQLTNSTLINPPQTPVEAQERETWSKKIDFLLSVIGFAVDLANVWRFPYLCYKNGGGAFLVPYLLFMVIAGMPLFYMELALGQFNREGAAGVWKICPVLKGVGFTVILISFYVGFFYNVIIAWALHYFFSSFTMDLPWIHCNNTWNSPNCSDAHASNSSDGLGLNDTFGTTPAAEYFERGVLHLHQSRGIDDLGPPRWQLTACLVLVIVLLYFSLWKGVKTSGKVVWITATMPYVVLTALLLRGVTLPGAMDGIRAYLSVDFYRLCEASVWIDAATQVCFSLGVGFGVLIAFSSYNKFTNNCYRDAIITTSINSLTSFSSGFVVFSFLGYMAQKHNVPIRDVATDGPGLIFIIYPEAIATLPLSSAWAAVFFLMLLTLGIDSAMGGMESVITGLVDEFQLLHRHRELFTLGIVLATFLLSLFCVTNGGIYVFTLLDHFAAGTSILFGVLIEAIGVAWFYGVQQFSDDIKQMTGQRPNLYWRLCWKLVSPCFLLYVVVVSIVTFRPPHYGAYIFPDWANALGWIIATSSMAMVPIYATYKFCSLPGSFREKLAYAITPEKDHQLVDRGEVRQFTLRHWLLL
Protocol: as §1, §2

[3] = target: T3, serotonine (5-HT) reuptake in synaptosomes (Rattus norvegicus, UniProt P31652); assay: Inhibition of 5-HT reuptake in synaptosomes; type: biochemical; settings: 3H-5-HT, read-out: 5-HT-uptake IC50
T3 construct: serotonine (5-HT) in synaptosomes as described in WO 97/16451; from tissue
T3 sequence (P31652 whole entry): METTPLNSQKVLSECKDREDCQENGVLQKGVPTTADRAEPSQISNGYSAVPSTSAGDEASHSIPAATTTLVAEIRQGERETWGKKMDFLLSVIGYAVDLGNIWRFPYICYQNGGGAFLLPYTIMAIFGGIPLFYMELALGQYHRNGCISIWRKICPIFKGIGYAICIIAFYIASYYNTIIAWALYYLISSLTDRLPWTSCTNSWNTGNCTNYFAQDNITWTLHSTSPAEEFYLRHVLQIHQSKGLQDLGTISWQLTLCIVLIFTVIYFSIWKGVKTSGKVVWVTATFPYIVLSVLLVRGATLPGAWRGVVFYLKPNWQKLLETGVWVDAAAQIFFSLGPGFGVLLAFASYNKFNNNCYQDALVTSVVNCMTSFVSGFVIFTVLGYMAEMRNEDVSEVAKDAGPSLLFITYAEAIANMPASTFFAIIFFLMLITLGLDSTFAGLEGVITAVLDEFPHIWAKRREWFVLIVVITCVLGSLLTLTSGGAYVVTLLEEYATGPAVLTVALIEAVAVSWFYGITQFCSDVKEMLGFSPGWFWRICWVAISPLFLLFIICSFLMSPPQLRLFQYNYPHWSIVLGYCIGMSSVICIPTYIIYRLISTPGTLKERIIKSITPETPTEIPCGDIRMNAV
Protocol: as §1, §2

[4] = synaptosomes, 3H-NA, read-out: NA-uptake IC50
[5] = synaptosomes, 3H-DA, read-out: DA-uptake IC50

T1 sequence (Q63380 1-617): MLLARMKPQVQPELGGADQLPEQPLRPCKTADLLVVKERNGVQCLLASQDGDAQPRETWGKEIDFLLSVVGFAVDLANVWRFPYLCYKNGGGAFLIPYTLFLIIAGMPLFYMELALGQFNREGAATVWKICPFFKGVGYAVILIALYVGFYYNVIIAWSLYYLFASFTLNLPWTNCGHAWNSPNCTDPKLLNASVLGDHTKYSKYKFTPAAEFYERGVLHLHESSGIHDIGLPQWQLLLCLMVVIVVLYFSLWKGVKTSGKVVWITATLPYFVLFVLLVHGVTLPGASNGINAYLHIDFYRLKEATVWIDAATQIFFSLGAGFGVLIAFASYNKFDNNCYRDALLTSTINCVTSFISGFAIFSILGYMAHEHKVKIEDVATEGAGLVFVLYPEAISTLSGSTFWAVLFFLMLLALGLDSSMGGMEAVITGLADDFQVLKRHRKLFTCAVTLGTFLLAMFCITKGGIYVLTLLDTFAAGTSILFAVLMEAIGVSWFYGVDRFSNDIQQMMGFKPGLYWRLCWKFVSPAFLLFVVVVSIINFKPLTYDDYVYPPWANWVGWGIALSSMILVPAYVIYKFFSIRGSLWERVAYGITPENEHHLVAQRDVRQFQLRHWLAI

SMILES	melting point	IC50 [1, 4]	IC50 [2, 5]	IC50 [3]	also measured
CCN(C(=O)CC1CCNCC1)c1cc(Cl)ccc1Cl (as salt: fumaric acid salt) [Compound C7, N-(2,5-Dichloro-phenyl)-N-ethyl-2-piperidin-4-yl-acetamide]	190 to 192 °C				
CCN(C(=O)CC1CCNCC1)c1c(Cl)cccc1Cl (as salt: fumaric acid salt) [Compound C8, N-(2,6-Dichloro-phenyl)-N-ethyl-2-piperidin-4-yl-acetamide]	167 to 169 °C				
CCN(C(=O)CC1CCNCC1)c1cc(Cl)cc(Cl)c1 (as salt: fumaric acid salt) [Compound C9, N-(3,5-Dichloro-phenyl)-N-ethyl-2-piperidin-4-yl-acetamide]	151 to 153 °C				
CCN(C(=O)CC1CCNCC1)c1ccc(Cl)c(Cl)c1Cl (as salt: fumaric acid salt) [Compound C10, N-Ethyl-2-piperidin-4-yl-N-(2,3,4-trichloro-phenyl)-acetamide]	62 to 64 °C				
CCN(C(=O)CC1CCNCC1)c1ccc(Br)c(Br)c1 (as salt: fumaric acid salt) [Compound C11, N-(3,4-Dibromo-phenyl)-N-ethyl-2-piperidin-4-yl-acetamide]	58 to 60 °C				
CCCN(C(=O)CC1CCNCC1)c1ccc(Cl)c(Cl)c1 (as salt: fumaric acid salt) [Compound C12, N-(3,4-Dichloro-phenyl)-2-piperidin-4-yl-N-propyl-acetamide]	55 to 58 °C				
CCN(C(=O)CC1CCNCC1)c1ccc(Cl)c(Br)c1 (as salt: fumaric acid salt) [Compound C13, N-(3-Bromo-4-chloro-phenyl)-N-ethyl-2-piperidin-4-yl-acetamide]	141 to 143 °C				
CCN(C(=O)CC1CCN(C)CC1)c1cccc2ccccc12 (as salt: fumaric acid salt) [Compound D3, N-Ethyl-2-(1-methyl-piperidin-4-yl)-N-naphthalen-1-yl-acetamide]	63 to 66 °C				
CCN(C(=O)CC1CCNCC1)c1ccc(Br)c(Cl)c1 (as salt: fumaric acid salt) [Compound D4, N-(4-Bromo-3-chloro-phenyl)-N-ethyl-2-piperidin-4-yl-acetamide]	159 to 161 °C				
CCN(C(=O)CC1CCNCC1)c1ccc(Cl)cc1Cl (as salt: fumaric acid salt) [Compound D5, N-(2,4-Dichloro-phenyl)-N-ethyl-2-piperidin-4-yl-acetamide]	112 to 114 °C				
CN1CCC(CC(=O)Nc2ccc(Cl)c(Cl)c2)CC1 (as salt: fumaric acid salt) [Compound D6, N-(3,4-Dichloro-phenyl)-2-(1-methyl-piperidin-4-yl)-acetamide]	180 to 183 °C				
CCN(C(=O)CC1CCN(C)CC1)c1cccc(Cl)c1Cl (as salt: fumaric acid salt) [Compound D8, N-(2,3-Dichloro-phenyl)-N-ethyl-2-(1-methyl-piperidin-4-yl)-acetamide]	51 to 53 °C				
CN1CCC(CC(=O)N(C)c2ccc(Cl)c(Cl)c2)CC1 (as salt: fumaric acid salt) [Compound D12, N-(3,4-Dichloro-phenyl)-N-methyl-2-(1-methyl-piperidin-4-yl)-acetamide]	57 to 59 °C				
CCN(C(=O)CC1CCN(C)CC1)c1ccc(Cl)cc1Cl (as salt: fumaric acid salt) [Compound D14, N-(2,4-Dichloro-phenyl)-N-ethyl-2-(1-methyl-piperidin-4-yl)-acetamide]	175 to 177 °C				
CCN(C(=O)CC1CCN(C)CC1)c1c(Cl)cccc1Cl (as salt: fumaric acid salt) [Compound D16, N-(2,6-Dichloro-phenyl)-N-ethyl-2-(1-methyl-piperidin-4-yl)-acetamide]	167 to 169 °C				
CCN(C(=O)CC1CCN(C)CC1)c1ccc(Cl)c(Cl)c1Cl (as salt: fumaric acid salt) [Compound D18, N-Ethyl-2-(1-methyl-piperidin-4-yl)-N-(2,3,4-trichloro-phenyl)-acetamide]	181 to 183 °C				
CCCN(C(=O)CC1CCN(C)CC1)c1ccc(Cl)c(Cl)c1 (as salt: fumaric acid salt) [Compound D20, N-(3,4-Dichloro-phenyl)-2-(1-methyl-piperidin-4-yl)-N-propyl-acetamide]	144 to 146 °C				
CCN(C(=O)CC1CCN(C)CC1)c1ccc(Cl)c(Cl)c1 (as salt: hydrochloric acid salt) [Compound D1, N-(3,4-Dichloro-phenyl)-N-ethyl-2-(1-methyl-piperidin-4-yl)-acetamide]	153 to 155 °C				

SMILES	melting point	IC50 [1, 4]	IC50 [2, 5]	IC50 [3]	also measured
CCN(C(=O)CC1CCN(C)CC1)c1cccc2ccccc12 [Compound D3, N-Ethyl-2-(1-methyl-piperidin-4-yl)-N-naphthalen-1-yl-acetamide]		1.7 µM	> 1 µM	> 1 µM	
CCN(C(=O)CC1CCNCC1)c1ccc(Br)c(Cl)c1 [Compound D4, N-(4-Bromo-3-chloro-phenyl)-N-ethyl-2-piperidin-4-yl-acetamide]		0.0026 µM	0.0086 µM	2.1 µM	
CCN(C(=O)CC1CCNCC1)c1ccc(Cl)cc1Cl [Compound D5, N-(2,4-Dichloro-phenyl)-N-ethyl-2-piperidin-4-yl-acetamide]		> 1 µM	> 1 µM	> 1 µM	
CN1CCC(CC(=O)Nc2ccc(Cl)c(Cl)c2)CC1 [Compound D6, N-(3,4-Dichloro-phenyl)-2-(1-methyl-piperidin-4-yl)-acetamide]		> 1 µM	> 1 µM	> 1 µM	
CCN(C(=O)CC1CCN(C)CC1)c1cccc(Cl)c1 [Compound D7, N-(3-Chloro-phenyl)-N-ethyl-2-(1-methyl-piperidin-4-yl)-acetamide]		0.35 µM	0.97 µM	> 1 µM	
CCN(C(=O)CC1CCN(C)CC1)c1cccc(Cl)c1Cl [Compound D8, N-(2,3-Dichloro-phenyl)-N-ethyl-2-(1-methyl-piperidin-4-yl)-acetamide]		> 1 µM	> 1 µM	> 1 µM	
CCCN1CCC(CC(=O)N(CC)c2ccc(Cl)c(Cl)c2)CC1 [Compound D9, N-(3,4-Dichloro-phenyl)-N-ethyl-2-(1-propykpiperidin-4-yl)-acetamide]				0.78 µM	IC50 [1]: 0.0038 µM; IC50 [2]: 0.012 µM
CCN(C(=O)CC1CCN(C(C)C)CC1)c1ccc(Cl)c(Cl)c1 [Compound D10, N-(3,4-Dichloro-phenyl)-N-ethyl-2-(1-isopropyl-piperidin-4-yl)-acetamide]		0.0077 µM	0.031 µM	1.2 µM	
CCN1CCC(CC(=O)N(CC)c2ccc(Cl)c(Cl)c2)CC1 [Compound D11, N-(3,4-Dichloro-phenyl)-N-ethyl-2-(1-ethyl-piperidin-4-yl)-acetamide]		0.0032 µM	0.013 µM	0.87 µM	
CN1CCC(CC(=O)N(C)c2ccc(Cl)c(Cl)c2)CC1 [Compound D12, N-(3,4-Dichloro-phenyl)-N-methyl-2-(1-methyl-piperidin-4-yl)-acetamide]		0.069 µM	0.16 µM	> 1 µM	
CCN(C(=O)CC1CCN(C)CC1)c1ccc(Br)c(Cl)c1 [Compound D13, N-(4-Bromo-3-chloro-phenyl)-N-ethyl-2-(1-methyl-piperidin-4-yl)-acetamide]		0.0027 µM	0.016 µM	1.5 µM	
CCN(C(=O)CC1CCN(C)CC1)c1ccc(Cl)cc1Cl [Compound D14, N-(2,4-Dichloro-phenyl)-N-ethyl-2-(1-methyl-piperidin-4-yl)-acetamide]		0.96 µM	2.5 µM	> 1 µM	
CCN(C(=O)CC1CCN(C)CC1)c1cc(Cl)ccc1Cl [Compound D15, N-(2,5-Dichloro-phenyl)-N-ethyl-2-(1-methyl-piperidin-4-yl)-acetamide]		0.86 µM	1.7 µM	> 1 µM	
CCN(C(=O)CC1CCN(C)CC1)c1c(Cl)cccc1Cl [Compound D16, N-(2,6-Dichloro-phenyl)-N-ethyl-2-(1-methyl-piperidin-4-yl)-acetamide]		> 1 µM	> 1 µM	> 1 µM	
CCN(C(=O)CC1CCN(C)CC1)c1cc(Cl)cc(Cl)c1 [Compound D17, N-(3,5-Dichloro-phenyl)-N-ethyl-2-(1-methyl-piperidin-4-yl)-acetamide]		1.8 µM	> 1 µM	> 1 µM	
CCN(C(=O)CC1CCN(C)CC1)c1ccc(Br)c(Br)c1 [Compound D19, N-(3,4-Dibromo-phenyl)-N-ethyl-2-(1-methyl-piperidin-4-yl)-acetamide]		0.0011 µM	0.0036 µM	0.68 µM	
CCCN(C(=O)CC1CCN(C)CC1)c1ccc(Cl)c(Cl)c1 [Compound D20, N-(3,4-Dichloro-phenyl)-2-(1-methyl-piperidin-4-yl)-N-propyl-acetamide]		0.0034 µM	0.012 µM	0.7 µM	
CCN(C(=O)CC1CCN(C)CC1)c1ccc(Cl)c(Br)c1 [Compound D21, N-(3-Bromo-4-chloro-phenyl)-N-ethyl-2-(1-methyl-piperidin-4-yl)-acetamide]		0.0023 µM	0.012 µM	1.2 µM	

— US20110212997A1, “PIPERIDINE-4-ACETAMIDE DERIVATIVES AND THEIR USE AS MONOAMINE NEUROTRANSMITTER RE-UPTAKE INHIBITORS” (NEUROSEARCH A/S, priority 2008, published 2011)
